Measured values: the supplement of paper PMC10331698
± gives the standard deviation of the averaged measurements.

Columns and labels:
Assay in all cases: level (log10 ratio to DMSO vehicle control); higher = higher biomarker level / cell amount than vehicle control
[1] = compound: O=C(O)C(F)(F)C(F)(F)C(F)(F)C(F)(F)C(F)(F)C(F)(F)C(F)(F)C(F)F [9-H-Perfluorononanoic acid]; settings: in DMSO
Experimental: (§1)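 BioMAP Diversity Plus panel of 12 human primary cell co-culture systems (3C, 4H, LPS, SAg, BT, BF4T, BE3C, CASM3C, HDF3CGF, KF3CT, MyoF, Mphg). Compounds were added 1 h before stimulation and left for 24 h (MyoF 48 h; BT 72 h for soluble read-outs or 6 d for IgG). Biomarkers were read by ELISA, cytotoxicity by SRB, PBMC viability and proliferation by Alamar Blue. Each well value was divided by the mean of 8 DMSO control wells on the same plate and log10 transformed; duplicate blinded samples were tested at 4 concentrations.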

Perfluoropentanoic acid = compound: O=C(O)C(F)(F)C(F)(F)C(F)(F)C(F)(F)F [Perfluoropentanoic acid]; settings: in DMSO
Experimental: as §1

[2] = compound: O=C(O)C(F)(F)C(F)(F)C(F)(F)OC(F)(C(F)(F)F)C(F)(F)F [Perfluoro-4-isopropoxybutanoic acid]; settings: in DMSO
Experimental: as §1

[3] = compound: O=C(O)C(F)(F)C(F)(F)C(F)F [4H-Perfluorobutanoic acid]; settings: in DMSO
Experimental: as §1

Perfluoropropanoic acid = compound: O=C(O)C(F)(F)C(F)(F)F [Perfluoropropanoic acid]; settings: in DMSO
Experimental: as §1

[4] = compound: OCC(F)(F)OC(F)(F)C(F)(F)OC(F)(F)CO [1H,1H,8H,8H-Perfluoro-3,6-dioxaoctane-1,8-diol]; settings: in DMSO
Experimental: as §1

[5] = compound: OCCCC(F)(F)C(F)(F)C(F)(F)C(F)(F)C(F)(F)C(F)(F)C(F)(F)F [7:3 Fluorotelomer alcohol]; settings: 6700 nM; in DMSO
Experimental: as §1

Row | Test System | level (log10) ([1]; 6700 nM) | level (log10) ([1]; 20000 nM) | level (log10) ([1]; 60000 nM) | level (log10) (Perfluoropentanoic acid; 6700 nM) | level (log10) (Perfluoropentanoic acid; 20000 nM) | level (log10) (Perfluoropentanoic acid; 60000 nM) | level (log10) ([2]; 6700 nM) | level (log10) ([2]; 20000 nM) | level (log10) ([2]; 60000 nM) | level (log10) ([3]; 6700 nM) | level (log10) ([3]; 20000 nM) | level (log10) ([3]; 60000 nM) | level (log10) (Perfluoropropanoic acid; 6700 nM) | level (log10) (Perfluoropropanoic acid; 20000 nM) | level (log10) (Perfluoropropanoic acid; 60000 nM) | level (log10) ([4]; 6700 nM) | level (log10) ([4]; 20000 nM) | level (log10) ([4]; 60000 nM) | level (log10) [5]
1 | lMphg:CCL2/MCP-1 | -0.0085 ± 0.0021 | -0.0215 ± 0.013 | 0.014 ± 0.04 | 0.038 ± 0.0028 | 0.0155 ± 0.03 | 0.0015 ± 0.035 | -0.018 ± 0.0042 | -0.0185 ± 0.0092 | 0.0175 ± 0.0078 | -0.024 ± 0.027 | -0.0125 ± 0.0035 | 0.0005 ± 0.021 | -0.021 ± 0.017 | -0.0045 ± 0.0064 | 0.002 ± 0.013 | -0.0115 ± 0.0035 | -0.0145 ± 0.012 | 0.0155 ± 0.012 | 0.001 ± 0.0057
2 | CASM3C:CXCL8/IL-8 | -0.002 ± 0.0057 | -0.0045 ± 0.00071 | 0.0035 ± 0.0035 | -0.01 ± 0.0085 | -0.019 ± 0.011 | -0.0015 ± 0.013 | 0.0115 ± 0.019 | 0.0295 ± 0.016 | 0.076 ± 0.017 | -0.003 ± 0.0057 | 0.004 ± 0.0042 | 0.0135 ± 0.033 | 0.001 ± 0.011 | -0.003 ± 0.023 | 0.0185 ± 0.043 | 0.0045 ± 0.0064 | -0.002 ± 0.0028 | 0.0125 ± 0.013 | -0.0145 ± 0.005
3 | 3C:CD142/Tissue Factor | 0.035 ± 0.0028 | 0.027 ± 0.0042 | 0.059 ± 0.023 | 0.0225 ± 0.011 | 0.018 ± 0.027 | 0.0395 ± 0.056 | -0.015 ± 0.0085 | -0.0185 ± 0.0035 | -0.002 ± 0.0057 | -0.004 ± 0.0014 | -0.021 ± 0.0099 | 0.0105 ± 0.005 | -0.008 ± 0.018 | -0.015 ± 0.0085 | 0.0065 ± 0.0035 | 0.0175 ± 0.0064 | 0.011 ± 0.021 | -0.0045 ± 0.0035 | -0.007 ± 0.0057
4 | HDF3CGF:MMP-1 | -0.047 ± 0.011 | -0.0915 ± 0.013 | -0.0745 ± 0.0078 | -0.0165 ± 0.013 | -0.0215 ± 0.0021 | -0.0215 ± 0.011 | -0.0055 ± 0.0035 | 0 ± 0.0028 | -0.0015 ± 0.011 | 0.0005 ± 0.0021 | -0.0025 ± 0.0035 | 0.0075 ± 0.021 | -0.0065 ± 0.0064 | 0.0045 ± 0.013 | 0.0035 ± 0.015 | -0.0055 ± 0.0092 | -0.0115 ± 0.023 | -0.006 | -0.034 ± 0.021
5 | lMphg:CD106/VCAM-1 | -0.008 ± 0.018 | 0.0185 ± 0.00071 | 0.0075 ± 0.023 | 0.005 ± 0.02 | 0.0125 ± 0.018 | 0.016 ± 0.0057 | -0.0135 ± 0.013 | 0.0015 ± 0.028 | 0.014 ± 0.0057 | 0.003 ± 0.0028 | 0.0125 ± 0.016 | 0.003 ± 0.014 | -0.008 ± 0.013 | 0.0185 ± 0.0035 | 0.023 ± 0.016 | -0.0355 ± 0.05 | -0.0035 ± 0.012 | -0.028 ± 0.034 | -0.009 ± 0.027
6 | lMphg:CD69 | -0.0445 ± 0.088 | -0.038 ± 0.054 | -0.072 ± 0.0099 | -0.0315 ± 0.0092 | -0.0525 ± 0.013 | 0.0175 ± 0.077 | -0.044 ± 0.014 | -0.069 ± 0.021 | -0.0455 ± 0.054 | 0.0185 ± 0.032 | -0.0175 ± 0.0021 | 0.0095 ± 0.019 | 0.0105 ± 0.059 | -0.022 ± 0.025 | 0.0045 ± 0.029 | -0.0305 ± 0.0064 | -0.041 ± 0.025 | -0.0145 ± 0.13 | -0.0115 ± 0.011
7 | CASM3C:PAI-I | 0.0135 ± 0.021 | -0.004 ± 0.0042 | 0.0085 ± 0.022 | -0.0095 ± 0.011 | -0.007 ± 0.0042 | 0.0005 ± 0.011 | 0.007 ± 0.016 | 0.01 ± 0.021 | 0.0075 ± 0.026 | 0.009 ± 0.0071 | 0.006 ± 0.0071 | 0.0075 ± 0.0021 | -0.0035 ± 0.0021 | -0.003 ± 0.0014 | 0.0005 ± 0.0064 | 0.006 ± 0.0028 | 0 ± 0.0028 | 0.011 ± 0.017 | -0.005 ± 0.0014
8 | HDF3CGF:TIMP-1 | -0.04 ± 0.0042 | 0.008 ± 0.0071 | 0.0385 ± 0.0021 | -0.0195 ± 0.0021 | -0.032 ± 0.014 | 0.0115 ± 0.011 | -0.023 ± 0.048 | -0.0155 ± 0.043 | 0.018 ± 0.11 | -0.015 ± 0.031 | -0.007 ± 0.0014 | 0.0115 ± 0.021 | -0.0195 ± 0.016 | -0.0045 ± 0.0064 | 0.038 ± 0.025 | -0.007 ± 0.025 | -0.0015 ± 0.016 | 0.0065 ± 0.023 | -0.012
9 | lMphg:IL-1alpha | -0.002 ± 0.017 | 0.0105 ± 0.0092 | 0.042 ± 0.057 | -0.0095 ± 0.022 | -0.0195 ± 0.046 | 0.01 ± 0.05 | -0.005 ± 0.0057 | 0.0045 ± 0.005 | 0.009 ± 0.028 | -0.0055 ± 0.0064 | -0.0355 ± 0.0064 | 0.017 ± 0.035 | -0.0235 ± 0.00071 | -0.019 ± 0.038 | 0.035 ± 0.027 | -0.027 ± 0.09 | -0.036 ± 0.035 | -0.021 ± 0.018 | 0.017 ± 0.028
10 | MyoF:alpha-SM Actin | -0.0215 ± 0.019 | -0.0245 ± 0.013 | -0.049 ± 0.014 | 0.0265 ± 0.07 | 0.0355 ± 0.052 | 0.0485 ± 0.044 | 0.0045 ± 0.023 | 0.008 ± 0.033 | 0.026 ± 0.052 | -0.0335 ± 0.047 | -0.0245 ± 0.049 | -0.026 ± 0.034 | -0.031 ± 0.035 | -0.013 ± 0.017 | 0.011 ± 0.0057 | 0.003 ± 0.0057 | 0.013 ± 0.017 | 0.004 ± 0.018 | 0.0125 ± 0.0092
11 | HDF3CGF:TIMP-2 | -0.07 ± 0.086 | -0.0755 ± 0.028 | -0.0595 ± 0.049 | 0.009 ± 0.024 | -0.0155 ± 0.018 | -0.0025 ± 0.011 | -0.008 ± 0.017 | 0.0335 ± 0.022 | -0.004 ± 0.023 | -0.0295 ± 0.066 | -0.01 ± 0.044 | -0.003 ± 0.059 | -0.0495 ± 0.028 | -0.0155 ± 0.05 | -0.037 ± 0.073 | -0.002 ± 0.016 | 0.002 ± 0.0071 | -0.011 ± 0.021 | 0.0005 ± 0.013
12 | HDF3CGF:CD54/ICAM-1 | -0.035 ± 0.042 | -0.052 ± 0.021 | -0.045 ± 0.02 | 0.039 ± 0.054 | 0.035 ± 0.033 | 0.0485 ± 0.046 | -0.009 ± 0.0071 | -0.01 ± 0.0028 | -0.031 ± 0.017 | 0.009 ± 0.021 | 0.013 ± 0.0099 | 0.0035 ± 0.005 | 0.007 ± 0.016 | 0.0065 ± 0.005 | -0.0045 ± 0.00071 | 0.005 ± 0.0028 | -0.0165 ± 0.005 | -0.01 ± 0.014 | -0.024 ± 0.0085
13 | CASM3C:CCL2/MCP-1 | 0.0125 ± 0.0092 | -0.0015 ± 0.00071 | 0.017 ± 0.0071 | -0.0085 ± 0.005 | -0.0125 ± 0.019 | -0.0015 ± 0.015 | -0.0255 ± 0.012 | -0.0305 ± 0.005 | 0.027 ± 0.034 | 0.006 | -0.0065 ± 0.012 | 0.0065 ± 0.016 | 0.0025 ± 0.012 | -0.0025 ± 0.019 | 0.0055 ± 0.00071 | -0.026 ± 0.041 | -0.022 ± 0.017 | -0.017 ± 0.013 | -0.0115 ± 0.012
